# Like-named read-outs stand apart in the source and are kept apart here. Residues, ends and D or L forms follow the SMILES beside them.
# How the values were obtained:
# [1] = molecular target: HLA-B*5401 (Homo sapiens, UniProt P01889, A329T/C349S/D138N/D201E/E176V/E187T/E204Q/E69G/I76V/K202T/L119W/R155S/R180L/S121T/S35A/S48A/V127L/V306I/V36M/Y140L); test: Purified HLA class I peptide binding assay, B*5401
# [2] = molecular target: HLA-B*3501 (Homo sapiens, UniProt P01889, A329T/A93T/A95T/C349S/D201E/D98Y/E176V/E187L/E204Q/E69T/I218V/K202T/L119I/Q94N/R155S/R180L/S121R/S35A/S48A/T118I/V127L/V306I/V36M/Y140S/Y91F); test: Purified HLA class I peptide binding assay, B*3501
# [3] = molecular target: HLA-B*5301 (Homo sapiens, UniProt P01889, A329T/A93T/A95T/C349S/D201E/D98Y/E176V/E187L/E204Q/E69T/G107R/I218V/K202T/L105A/L119I/N104I/Q94N/R106L/R155S/R180L/S101N/S121R/S35A/S48A/T118I/V127L/V306I/V36M/Y140S/Y91F); test: Purified HLA class I peptide binding assay, B*5301
# [4] = molecular target: HLA-B*0702 (Homo sapiens, UniProt P01889); test: Purified HLA class I peptide binding assay, B*0702
# [5] = molecular target: HLA-B*5101 (B51) (Homo sapiens, UniProt P01889, A329T/A93T/A95T/C349S/D138N/D201E/D98Y/E187L/E204Q/E69T/G107R/I218V/K202T/L105A/L119W/N104I/Q94N/R106L/R155S/R180L/S101N/S121T/S35A/S48A/V306I/V36M/Y195H/Y91F); test: Purified HLA class I peptide binding assay, B51; conditions: binding affinity, HLA-B7 supermotif-bearing peptides
# [6] = binding affinity, HLA-B7 supermotif-bearing peptides
Compound,"IC50 [1, 6] [µM]","IC50 [2, 6] [µM]","IC50 [3, 6] [µM]","IC50 [4, 6] [µM]",IC50 ([5]; read-out: B*5101 nM) [µM],IC50 [1] [µM],IC50 [2] [µM],IC50 ([5]; B*5101 nM) [µM],IC50 [3] [µM],IC50 [4] [µM]
CC[C@H](C)[C@H](NC(=O)[C@@H]1CCCN1C(=O)[C@H](Cc1ccc(O)cc1)NC(=O)[C@H](CC(N)=O)NC(=O)[C@H](CCSC)NC(=O)[C@@H](NC(=O)[C@@H](NC(=O)[C@@H]1CCCN1C(=O)[C@@H](N)Cc1ccccc1)[C@@H](C)O)[C@@H](C)O)C(=O)O,0.0015,0.022,0.0085,0.059,,,,,,
CC[C@H](C)[C@H](NC(=O)[C@@H](NC(=O)[C@H](CC(C)C)NC(=O)[C@H](CC(C)C)NC(=O)CNC(=O)[C@@H](NC(=O)[C@H](CCCCN)NC(=O)[C@@H]1CCCN1C(=O)[C@@H](N)Cc1ccccc1)[C@@H](C)O)[C@@H](C)CC)C(=O)O,0.01,> 10,0.266,,0.032,,,,,
CC[C@H](C)[C@H](NC(=O)[C@@H](NC(=O)[C@H](Cc1ccc(O)cc1)NC(=O)[C@H](CC(C)C)NC(=O)[C@H](Cc1c[nH]cn1)NC(=O)[C@H](CO)NC(=O)[C@@H](NC(=O)[C@@H]1CCCN1C(=O)[C@@H](N)Cc1ccccc1)[C@@H](C)CC)[C@@H](C)CC)C(=O)O,0.0006,,0.0044,0.0029,0.0042,,,,,
CC[C@H](C)[C@H](NC(=O)[C@H](Cc1ccc(O)cc1)NC(=O)[C@H](CC(C)C)NC(=O)[C@H](Cc1c[nH]cn1)NC(=O)[C@H](CO)NC(=O)[C@@H](NC(=O)[C@@H]1CCCN1C(=O)[C@@H](N)Cc1ccccc1)[C@@H](C)CC)C(=O)O,,,,,,0.059,0.655,0.042,0.358,0.212
CC[C@H](C)[C@H](NC(=O)[C@H](Cc1c[nH]cn1)NC(=O)[C@@H]1CCCN1C(=O)[C@@H](N)Cc1ccccc1)C(=O)N[C@@H](CO)C(=O)N[C@@H](Cc1ccc(O)cc1)C(=O)N1CCC[C@H]1C(=O)N1CCC[C@H]1C(=O)N[C@@H](CC(C)C)C(=O)O,0.0038,,0.49,0.0017,0.177,,,,,
CC[C@H](C)[C@H](NC(=O)[C@H](Cc1ccccc1)NC(=O)[C@@H](NC(=O)[C@H](Cc1ccc(O)cc1)NC(=O)[C@H](CC(C)C)NC(=O)[C@H](Cc1c[nH]cn1)NC(=O)CNC(=O)[C@@H](NC(=O)[C@@H]1CCCN1C(=O)[C@@H](N)Cc1ccccc1)[C@@H](C)CC)[C@@H](C)CC)C(=O)O,0.0029,0.139,0.0085,0.063,0.0057,,,,,
CSCC[C@H](NC(=O)[C@@H](NC(=O)[C@@H](NC(=O)[C@@H]1CCCN1C(=O)[C@@H](N)Cc1ccccc1)[C@@H](C)O)[C@@H](C)O)C(=O)N[C@@H](CC(N)=O)C(=O)N[C@@H](Cc1ccc(O)cc1)C(=O)N1CCC[C@H]1C(=O)N[C@@H](CC(C)C)C(=O)O (H-FPTTMNYPL-OH; N-terminus and C-terminus assumed),0.003,0.0045,0.039,0.0064,0.423,,,,,
CC[C@H](C)[C@H](NC(=O)[C@@H](NC(=O)[C@@H](NC(=O)[C@H](CC(C)C)NC(=O)[C@H](CC(C)C)NC(=O)CNC(=O)[C@H](C)NC(=O)[C@H](CCCCN)NC(=O)[C@@H]1CCCN1C(=O)[C@@H](N)Cc1ccccc1)[C@@H](C)CC)[C@@H](C)CC)C(=O)O,,2.67,0.846,0.204,0.065,,,,,
CC[C@H](C)[C@H](NC(=O)[C@@H](NC(=O)[C@H](Cc1ccc(O)cc1)NC(=O)[C@H](CC(C)C)NC(=O)[C@H](Cc1c[nH]cn1)NC(=O)CNC(=O)[C@@H](NC(=O)[C@@H]1CCCN1C(=O)[C@@H](N)Cc1ccccc1)[C@@H](C)CC)[C@@H](C)CC)C(=O)O,0.0006,0.077,,0.0034,0.005,,,,,
CC[C@H](C)[C@H](NC(=O)[C@H](CC(C)C)NC(=O)[C@H](C)NC(=O)[C@H](CCCNC(=N)N)NC(=O)[C@@H]1CCCN1C(=O)[C@@H](N)Cc1ccccc1)C(=O)N[C@@H](CCC(=O)O)C(=O)N[C@H](C(=O)N[C@@H](CO)C(=O)N[C@@H](Cc1ccc(O)cc1)C(=O)N[C@H](C(=O)O)C(C)C)[C@@H](C)O,0.0071,4.5,7.75,0.0063,0.128,,,,,
CC(C)C[C@H](NC(=O)[C@H](C)NC(=O)[C@H](CCCNC(=N)N)NC(=O)[C@@H]1CCCN1C(=O)[C@@H](N)Cc1ccccc1)C(=O)N[C@H](C(=O)N[C@@H](CCC(=O)O)C(=O)N[C@H](C(=O)N[C@@H](CO)C(=O)N[C@@H](Cc1ccc(O)cc1)C(=O)N[C@H](C(=O)O)C(C)C)[C@@H](C)O)C(C)C,0.01,4.23,> 10,0.0042,0.204,,,,,
CC[C@H](C)[C@H](NC(=O)[C@H](CC(C)C)NC(=O)[C@H](CC(C)C)NC(=O)CNC(=O)[C@@H](NC(=O)[C@H](CCCCN)NC(=O)[C@@H]1CCCN1C(=O)[C@@H](N)Cc1ccccc1)[C@@H](C)O)C(=O)O,0.037,> 10,3.32,0.134,0.016,,,,,
CC[C@H](C)[C@H](NC(=O)[C@H](CO)NC(=O)[C@H](CO)NC(=O)[C@H](C)NC(=O)CNC(=O)[C@H](CCC(N)=O)NC(=O)[C@@H]1CCCN1C(=O)[C@@H](N)Cc1ccccc1)C(=O)O,0.4,> 10,3,,,,,,,
CC[C@H](C)[C@H](NC(=O)[C@H](Cc1ccc(O)cc1)NC(=O)[C@H](CO)NC(=O)[C@@H](NC(=O)[C@H](CCC(=O)O)NC(=O)[C@@H](NC(=O)[C@H](CC(C)C)NC(=O)[C@H](C)NC(=O)[C@H](CCCNC(=N)N)NC(=O)[C@@H]1CCCN1C(=O)[C@@H](N)Cc1ccccc1)[C@@H](C)CC)[C@@H](C)O)C(=O)O (H-FPRALIETSYI-OH; N-terminus and C-terminus assumed),0.127,3.6,0.465,0.0074,0.07,,,,,
CC[C@H](C)[C@H](NC(=O)[C@H](CO)NC(=O)[C@H](CCC(N)=O)NC(=O)[C@H](CO)NC(=O)[C@H](Cc1c[nH]c2ccccc12)NC(=O)[C@H](CC(C)C)NC(=O)[C@@H]1CCCN1C(=O)[C@@H](N)Cc1ccccc1)C(=O)O,0.015,1.01,0.245,0.122,,,,,,
CC[C@H](C)[C@H](NC(=O)[C@H](CC(C)C)NC(=O)[C@H](CC(C)C)NC(=O)CNC(=O)[C@H](C)NC(=O)[C@H](CCCCN)NC(=O)[C@@H]1CCCN1C(=O)[C@@H](N)Cc1ccccc1)C(=O)N[C@H](C(=O)N[C@H](C(=O)O)C(C)C)[C@@H](C)CC (H-FPKAGLLIIV-OH; N-terminus and C-terminus assumed),0.0011,0.878,4.65,0.22,0.19,,,,,
CC[C@H](C)[C@H](NC(=O)[C@H](CC(C)C)NC(=O)[C@H](CC(C)C)NC(=O)CNC(=O)[C@H](C)NC(=O)[C@H](CCCCN)NC(=O)[C@@H]1CCCN1C(=O)[C@@H](N)Cc1ccccc1)C(=O)O,,> 10,0.775,,0.0082,,,,,
CC[C@H](C)[C@H](NC(=O)[C@@H]1CCCN1C(=O)[C@@H]1CCCN1C(=O)[C@H](Cc1ccc(O)cc1)NC(=O)[C@H](CO)NC(=O)[C@@H](NC(=O)[C@H](Cc1c[nH]cn1)NC(=O)[C@@H]1CCCN1C(=O)[C@@H](N)Cc1ccccc1)[C@@H](C)CC)C(=O)O,0.0014,0.36,0.233,0.0029,,,,,,
CC[C@H](C)[C@H](NC(=O)[C@H](CC(C)C)NC(=O)[C@H](CC(=O)O)NC(=O)[C@H](CCC(N)=O)NC(=O)[C@H](CCSC)NC(=O)[C@H](CC(C)C)NC(=O)[C@H](CC(C)C)NC(=O)[C@H](CCCCN)NC(=O)[C@H](CCCNC(=N)N)NC(=O)[C@@H]1CCCN1C(=O)[C@@H](N)Cc1ccccc1)C(=O)O,0.1,> 10,,0.086,0.367,,,,,
CC[C@H](C)[C@H](NC(=O)[C@H](CC(C)C)NC(=O)[C@@H](NC(=O)[C@H](Cc1ccc(O)cc1)NC(=O)[C@H](CC(C)C)NC(=O)[C@H](Cc1c[nH]cn1)NC(=O)[C@H](CO)NC(=O)[C@@H](NC(=O)[C@@H]1CCCN1C(=O)[C@@H](N)Cc1ccccc1)[C@@H](C)CC)[C@@H](C)CC)C(=O)O,0.0026,,0.0049,0.097,0.013,,,,,
CSCC[C@H](NC(=O)[C@@H](NC(=O)[C@@H](NC(=O)[C@@H]1CCCN1C(=O)[C@@H](N)Cc1ccccc1)[C@@H](C)O)[C@@H](C)O)C(=O)N[C@@H](CC(N)=O)C(=O)N[C@@H](Cc1ccc(O)cc1)C(=O)N1CCC[C@H]1C(=O)N[C@@H](CC(C)C)C(=O)N[C@@H](Cc1c[nH]c2ccccc12)C(=O)O,0.042,,,0.22,> 10,,,,,
CC[C@H](C)[C@H](NC(=O)[C@H](Cc1ccc(O)cc1)NC(=O)[C@H](CO)NC(=O)[C@@H](NC(=O)[C@H](CCC(=O)O)NC(=O)[C@@H](NC(=O)[C@H](CC(C)C)NC(=O)[C@H](C)NC(=O)[C@H](CCCNC(=N)N)NC(=O)[C@@H]1CCCN1C(=O)[C@@H](N)Cc1ccccc1)C(C)C)[C@@H](C)O)C(=O)O,0.059,5.54,0.62,,0.117,,,,,

# From US20040053822A1, “Inducing cellular immune responses to mage2/3 using peptide and nucleic acid compositions” (priority 2002, published 2004)
